Laboratory results: patent US8192962B2, “Processes for detecting toxic substances” (Daikin Industries, Ltd., priority 2001, dated 2012)

Test system: Genes belonging to other category
Assay: DNA chip mRNA expression in yeast, genes belonging to other category (Table 9)
Type: cell-based, Saccharomyces cerevisiae S288C
Outline: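 First, S288C yeast grown in YPD at 25° C. are dosed in log phase with one toxicant (growth-inhibiting, not lethal) for 2 h. Next, total RNA is extracted and poly(A) mRNA isolated and reverse-transcribed with Cy3/Cy5-dUTP. Finally, whole-genome chip fluorescence is read relative to unexposed cells.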

CCCCCCCCCCCCOS(=O)(=O)[O-].[Na+] [(18), sodium lauryl sulfate]
The level of expressed mRNA in the presence of chemical substance/The level of expressed mRNA in the absence of chemical substance (yeast gene YJL035C): 1.0 | The level of expressed mRNA in the presence of chemical substance/The level of expressed mRNA in the absence of chemical substance (yeast gene YJL073W): 1.0 | The level of expressed mRNA in the presence of chemical substance/The level of expressed mRNA in the absence of chemical substance (yeast gene YJL089W): 1.1 | The level of expressed mRNA in the presence of chemical substance/The level of expressed mRNA in the absence of chemical substance (yeast gene YJL103C): 1.2 | The level of expressed mRNA in the presence of chemical substance/The level of expressed mRNA in the absence of chemical substance (yeast gene YJL116C): 0.7 | The level of expressed mRNA in the presence of chemical substance/The level of expressed mRNA in the absence of chemical substance (yeast gene YJL164C): 1.7 | The level of expressed mRNA in the presence of chemical substance/The level of expressed mRNA in the absence of chemical substance (yeast gene YJL210W): 1.0 | The level of expressed mRNA in the presence of chemical substance/The level of expressed mRNA in the absence of chemical substance (yeast gene YJR004C): 0.4 | The level of expressed mRNA in the presence of chemical substance/The level of expressed mRNA in the absence of chemical substance (yeast gene YJR019C): 1.4 | The level of expressed mRNA in the presence of chemical substance/The level of expressed mRNA in the absence of chemical substance (yeast gene YJR036C): 1.2 | The level of expressed mRNA in the presence of chemical substance/The level of expressed mRNA in the absence of chemical substance (yeast gene YJR047C): 0.9 | The level of expressed mRNA in the presence of chemical substance/The level of expressed mRNA in the absence of chemical substance (yeast gene YJR050W): 1.1 | The level of expressed mRNA in the presence of chemical substance/The level of expressed mRNA in the absence of chemical substance (yeast gene YJR058C): 1.2 | The level of expressed mRNA in the presence of chemical substance/The level of expressed mRNA in the absence of chemical substance (yeast gene YJR086W): 1.6 | The level of expressed mRNA in the presence of chemical substance/The level of expressed mRNA in the absence of chemical substance (yeast gene YJR117W): 0.9 | The level of expressed mRNA in the presence of chemical substance/The level of expressed mRNA in the absence of chemical substance (yeast gene YJR119C): 0.9 | The level of expressed mRNA in the presence of chemical substance/The level of expressed mRNA in the absence of chemical substance (yeast gene YJR123W): 0.9 | The level of expressed mRNA in the presence of chemical substance/The level of expressed mRNA in the absence of chemical substance (yeast gene YJR145C): 0.9 | The level of expressed mRNA in the presence of chemical substance/The level of expressed mRNA in the absence of chemical substance (yeast gene YKL007W): 1.3 | The level of expressed mRNA in the presence of chemical substance/The level of expressed mRNA in the absence of chemical substance (yeast gene YKL008C): 1.9 | The level of expressed mRNA in the presence of chemical substance/The level of expressed mRNA in the absence of chemical substance (yeast gene YKL013C): 1.7 | The level of expressed mRNA in the presence of chemical substance/The level of expressed mRNA in the absence of chemical substance (yeast gene YKL039W): 1.3 | The level of expressed mRNA in the presence of chemical substance/The level of expressed mRNA in the absence of chemical substance (yeast gene YKL041W): 1.3 | The level of expressed mRNA in the presence of chemical substance/The level of expressed mRNA in the absence of chemical substance (yeast gene YKL056C): 1.2 | The level of expressed mRNA in the presence of chemical substance/The level of expressed mRNA in the absence of chemical substance (yeast gene YKL079W): 1.2 | The level of expressed mRNA in the presence of chemical substance/The level of expressed mRNA in the absence of chemical substance (yeast gene YKL096W): 0.7 | The level of expressed mRNA in the presence of chemical substance/The level of expressed mRNA in the absence of chemical substance (yeast gene YKL117W): 1.8 | The level of expressed mRNA in the presence of chemical substance/The level of expressed mRNA in the absence of chemical substance (yeast gene YKL165C): 1.0 | The level of expressed mRNA in the presence of chemical substance/The level of expressed mRNA in the absence of chemical substance (yeast gene YKL171W): 1.2 | The level of expressed mRNA in the presence of chemical substance/The level of expressed mRNA in the absence of chemical substance (yeast gene YKL193C): 2.3 | The level of expressed mRNA in the presence of chemical substance/The level of expressed mRNA in the absence of chemical substance (yeast gene YLR093C): 3.2 | The level of expressed mRNA in the presence of chemical substance/The level of expressed mRNA in the absence of chemical substance (yeast gene YLR120C): 2.9 | The level of expressed mRNA in the presence of chemical substance/The level of expressed mRNA in the absence of chemical substance (yeast gene YLR136C): 1.4 | The level of expressed mRNA in the presence of chemical substance/The level of expressed mRNA in the absence of chemical substance (yeast gene YLR178C): 3.6 | The level of expressed mRNA in the presence of chemical substance/The level of expressed mRNA in the absence of chemical substance (yeast gene YLR206W): 1.2 | The level of expressed mRNA in the presence of chemical substance/The level of expressed mRNA in the absence of chemical substance (yeast gene YLR250W): 2.2 | The level of expressed mRNA in the presence of chemical substance/The level of expressed mRNA in the absence of chemical substance (yeast gene YLR327C): 5.3 | The level of expressed mRNA in the presence of chemical substance/The level of expressed mRNA in the absence of chemical substance (yeast gene YLR356W): 1.0 | The level of expressed mRNA in the presence of chemical substance/The level of expressed mRNA in the absence of chemical substance (yeast gene YLR362W): 1.3 | The level of expressed mRNA in the presence of chemical substance/The level of expressed mRNA in the absence of chemical substance (yeast gene YLR391W): 0.9 | The level of expressed mRNA in the presence of chemical substance/The level of expressed mRNA in the absence of chemical substance (yeast gene YLR429W): 0.9 | The level of expressed mRNA in the presence of chemical substance/The level of expressed mRNA in the absence of chemical substance (yeast gene YML130C): 1.2 | The level of expressed mRNA in the presence of chemical substance/The level of expressed mRNA in the absence of chemical substance (yeast gene YMR004W): 1.3 | The level of expressed mRNA in the presence of chemical substance/The level of expressed mRNA in the absence of chemical substance (yeast gene YMR091C): 1.2 | The level of expressed mRNA in the presence of chemical substance/The level of expressed mRNA in the absence of chemical substance (yeast gene YMR094W): 1.0 | The level of expressed mRNA in the presence of chemical substance/The level of expressed mRNA in the absence of chemical substance (yeast gene YMR104C): 1.9 | The level of expressed mRNA in the presence of chemical substance/The level of expressed mRNA in the absence of chemical substance (yeast gene YMR110C): 2.5 | The level of expressed mRNA in the presence of chemical substance/The level of expressed mRNA in the absence of chemical substance (yeast gene YMR112C): 1.6
